Reference: patent US7622598B2, “Phenol derivatives and antitrypanosoma preventive/therapeutic agent comprising the same as active ingredient” (aRigen Pharmaceuticals, Inc., priority 2003, dated 2009)
Where two headings read alike, the source gives them in different places.

What was measured:
[1] = target: cyanide resistant quinol enzyme of Trypanosoma (Trypanosoma brucei brucei, UniProt Q26710); assay: Respiration inhibition on the cyanide resistant quinol enzyme of Trypanosoma (recombinant enzyme); format: biochemical
cyanide resistant quinol enzyme of Trypanosoma, sequence (Q26710 whole entry): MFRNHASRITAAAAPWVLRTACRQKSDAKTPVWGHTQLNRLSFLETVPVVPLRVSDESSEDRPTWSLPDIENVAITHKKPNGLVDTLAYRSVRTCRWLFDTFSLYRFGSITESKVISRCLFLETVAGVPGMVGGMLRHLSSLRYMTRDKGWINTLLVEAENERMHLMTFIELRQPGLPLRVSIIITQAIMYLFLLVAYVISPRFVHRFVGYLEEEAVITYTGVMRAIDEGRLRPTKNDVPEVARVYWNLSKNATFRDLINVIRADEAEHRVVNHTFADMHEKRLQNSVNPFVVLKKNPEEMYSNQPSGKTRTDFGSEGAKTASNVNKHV
Source text: Antitrypanosoma Action (IC50)
The respiration inhibition effect of the novel phenol derivatives on the cyanide resistant quinol enzyme of Trypanosoma was examined with the use of a recombinant enzyme.

Trypanosma brucei brucei = assay: Antitrypanosoma action in 24 h culture, minimum effective concentration, with or without glycerin; format: cell-based, Trypanosoma brucei brucei; details: for Minimum Effective Concentration, Presence of Glycerin: 5 mM of glycerin; for minimal effective concentration: Trypanosoma brucei, read-out: Minimum Effective Concentration, Absence of Glycerin
Procedure: With the use of a 96-well culture plate, each agent was adjusted to 10 mM with DMSO, and 5×10^5/ml of Trypanosma brucei brucei was added and cultured at 37° C. for 24 hours, and the minimum effective concentration was calculated.
The above described culture was conducted with the addition of 5 mM of glycerin under the same conditions as described above and observed.

[2] = test system: glycerol-3-phosphate-dependent respiration in the mitochondrial specimen of Trypanosoma brucei brucei; details: earlier filing JP H09-165332; cited from earlier work
[3] = test system: glycerol-3-phosphate-dependent respiration in the mitochondrial specimen of Trypanosoma brucei brucei; assay: Inhibition of glycerol-3-phosphate-dependent respiration in mitochondrial specimen; format: biochemical; details: mitochondrial specimen from T. brucei brucei multiplied in rat bloodstream
Source text: The inhibition effect of the novel halogen-containing phenol derivatives having an alkyl side chain on the glycerol-3-phosphate-dependent respiration in the mitochondrial specimen prepared by mechanically crushing the bodies of Trypanosoma brucei brucei multiplied in the rat bloodstream with glass beads and subjecting the crushed bodies to centrifugal fractionation was examined.

[4] = 5×10^5/ml, 37° C., 24 hours, no glycerin

For `CCCCCCCCCCCC(O)c1c(O)c(Cl)cc(C(=O)OC)c1O` (centres unmarked), the melting point was 96 to 97 °C.

`Cc1c(Cl)c(O)c(CCC(C)CCCC(C)[C@@H]2CC(=O)C(C)(C)O2)c(O)c1C=O` (mixture of isomers) [compound 212, 3-Chloro-4,6-dihydroxy-2-methyl-5-[3-methyl-7-(tetrahydro-5,5-dimethyl-4-oxo-2-furanyl)octyl]-benzaldehyde] gave an IC50 [1] of 0.3 nM.

Compound `Cc1c(Cl)c(O)c(CCC(C)CCCC(C)C)c(O)c1C=O` (racemic) [dl-218, 3-Chloro-5-(3,7-dimethyloctyl)-4,6-dihydroxy-2-methylbenzaldehyde] has an IC50 [1] of 0.4 nM and a melting point of 66 to 67 °C.

In the case of `Cc1c(Cl)c(O)c(/C=C/C(C)CCCC(C)C)c(O)c1C=O` (racemic) [dl-223, 3-Chloro-5-(3,7-dimethyl-1-octenyl)-4,6-dihydroxy-2-methylbenzaldehyde], the IC50 [1] is reported as 1.1 nM.

For `CCCCCCCCC(O)c1c(O)cc(C)c(C=O)c1O` (centres unmarked) [195-9, 2,4-Dihydroxy-3-(1-hydroxynonyl)-6-methylbenzaldehyde], the “Minimum Effective Concentration, Presence of Glycerin” value (“Minimum Effective Concentration” below) (Trypanosma brucei brucei; 5×10^5/ml, 37° C., 24 hours) was 25 µM, the minimal effective concentration (Trypanosma brucei brucei; [4]) was 25 µM and the IC50 [1] was 30 nM.

With `CCCCCCCCCC(O)c1c(O)cc(C)c(C=O)c1O` (centres unmarked) [195-10, 2,4-Dihydroxy-3-(1-hydroxydecyl)-6-methylbenzaldehyde] the “Minimum Effective Concentration” value (Trypanosma brucei brucei; 5×10^5/ml, 37° C., 24 hours) was 25 µM, the minimal effective concentration (Trypanosma brucei brucei; [4]) was 25 µM and the IC50 [1] was 35 nM.

In the case of `CCCCCCCCCCCC(O)c1c(O)cc(C)c(C=O)c1O` (centres unmarked) [195-12, 2,4-Dihydroxy-3-(1-hydroxydodecyl)-6-methylbenzaldehyde], the “Minimum Effective Concentration” value (Trypanosma brucei brucei; 5×10^5/ml, 37° C., 24 hours) is reported as 25 µM, the minimal effective concentration (Trypanosma brucei brucei; [4]) is reported as 25 µM and the IC50 [1] is reported as 40 nM.

In the case of `CCCCCCCCC(O)c1c(O)c(Cl)c(C)c(C=O)c1O` (centres unmarked) [196-9, 5-Chloro-2,4-dihydroxy-3-(1-hydroxynonyl)-6-methylbenzaldehyde], the “Minimum Effective Concentration” value (Trypanosma brucei brucei; 5×10^5/ml, 37° C., 24 hours) is reported as 0.8 µM, the minimal effective concentration (Trypanosma brucei brucei; [4]) is reported as 50 µM and the IC50 [1] is reported as 0.5 nM.

With `CCCCCCCCCC(O)c1c(O)c(Cl)c(C)c(C=O)c1O` (centres unmarked) [196-10, 5-Chloro-2,4-dihydroxy-3-(1-hydroxydecyl)-6-methylbenzaldehyde] the “Minimum Effective Concentration” value (Trypanosma brucei brucei; 5×10^5/ml, 37° C., 24 hours) was 0.8 µM, the minimal effective concentration (Trypanosma brucei brucei; [4]) was 100 µM and the IC50 [1] was 0.6 nM.

For `CCCCCCCCCCCC(O)c1c(O)c(Cl)c(C)c(C=O)c1O` (centres unmarked) [196-12, 5-Chloro-2,4-dihydroxy-3-(1-hydroxydodecyl)-6-methylbenzaldehyde], the “Minimum Effective Concentration” value (Trypanosma brucei brucei; 5×10^5/ml, 37° C., 24 hours) was 1.5 µM, the minimal effective concentration (Trypanosma brucei brucei; [4]) was 100 µM and the IC50 [1] was 0.65 nM.

`CCCCC/C=C/c1c(O)c(Cl)c(C)c(C=O)c1O` [200-7, 5-Chloro-3-(1-heptenyl)-2,4-dihydroxy-6-methylbenzaldehyde] showed a melting point of 96 to 97 °C.

For `CCCCCCC/C=C/c1c(O)c(Cl)c(C)c(C=O)c1O` [200-9, 5-chloro-2,4-dihydroxy-6-methyl-3-(1-nonenyl)benzaldehyde], the “Minimum Effective Concentration” value (Trypanosma brucei brucei; 5×10^5/ml, 37° C., 24 hours) was 0.8 µM, the minimal effective concentration (Trypanosma brucei brucei; [4]) was 100 µM and the IC50 [1] was 0.4 nM. It also gave a melting point of 79.5 to 80.5 °C.

In the case of `CCCCCCCC/C=C/c1c(O)c(Cl)c(C)c(C=O)c1O` [200-10, 5-Chloro-3-(1-decenyl)-2,4-dihydroxy-6-methylbenzaldehyde], the “Minimum Effective Concentration” value (Trypanosma brucei brucei; 5×10^5/ml, 37° C., 24 hours) is reported as 0.8 µM, the minimal effective concentration (Trypanosma brucei brucei; [4]) is reported as 100 µM and the IC50 [1] is reported as 0.45 nM. It also gave a melting point of 83 to 84 °C.

With `CCCCCCCCCC/C=C/c1c(O)c(Cl)c(C)c(C=O)c1O` [200-12, 5-Chloro-3-(1-dodecenyl)-2,4-dihydroxy-6-methylbenzaldehyde] the “Minimum Effective Concentration” value (Trypanosma brucei brucei; 5×10^5/ml, 37° C., 24 hours) was 1.5 µM, the minimal effective concentration (Trypanosma brucei brucei; [4]) was 100 µM and the IC50 [1] was 0.5 nM.

Compound `CCCCCCCCCCCC(O)c1c(O)ccc(C=O)c1O` (centres unmarked) [201-12, 2,4-Dihydroxy-3-(1-hydroxydodecyl)benzaldehyde] has an IC50 [1] of 300 nM.

With `CCCCCCCCCCCC(O)c1c(O)c(Cl)cc(C=O)c1O` (centres unmarked) [202-12, 5-Chloro-2,4-dihydroxy-3-(1-hydroxydodecyl)benzaldehyde] the IC50 [1] was 1.5 nM and the melting point was 78 to 79 °C.

In the case of `CCCCCCCCCC/C=C/c1c(O)c(Cl)cc(C=O)c1O` [203-12, 5-Chloro-3-(1-dodecenyl)-2,4-dihydroxybenzaldehyde], the IC50 [1] is reported as 0.5 nM and the melting point is reported as 84 to 85 °C.

Compound `CCCCCCCCCc1c(O)c(Cl)c(C)c(C=O)c1O` [215-9, 3-Chloro-4,6-dihydroxy-2-methyl-5-nonylbenzaldehyde] has an IC50 [1] of 0.21 nM and a melting point of 89 to 90 °C.

In the case of `C/C(=C\Cc1c(O)c(Cl)c(C)c(C=O)c1O)CC/C=C(\C)[C@@H]1CC(=O)C(C)(C)O1` [AF, ascofuranone, reference compound], the “Minimum Effective Concentration” value (Trypanosma brucei brucei; 5×10^5/ml, 37° C., 24 hours) is given as 0.2 µM, the minimal effective concentration (Trypanosma brucei brucei; 24 h) is given as 200 µM and the “inhibition of the glycerol-3-phosphate oxidation system of trypanosome” value [2] is given as “very low concentration of the order of nM”.

For `CCCC[C@H]1C(=O)O[C@H](C)[C@H](NC(=O)c2cccc(NC=O)c2O)C(=O)O[C@@H](C)[C@@H]1OC(=O)CC(C)C` [antimycin A3], the “absolute amounts of 50% inhibition” value [3] was 48,600 pmol/mg protein.

In the case of `CCCCCCCC/C=C/c1c(O)ccc(C=O)c1O` [compound 197, 3-(1-Decenyl)-2,4-dihydroxybenzaldehyde], the “Minimum Effective Concentration” value (Trypanosma brucei brucei; 5×10^5/ml, 37° C., 24 hours) is reported as 50 µM, the minimal effective concentration (Trypanosma brucei brucei; [4]) is reported as 50 µM and the IC50 [1] is reported as 120 nM.

In the case of `CCCCCCCCCC/C=C/c1c(O)cc(C)c(C=O)c1O` [compound 198, 3-(1-Dodecenyl)-2,4-dihydroxy-6-methylbenzaldehyde], the “Minimum Effective Concentration” value (Trypanosma brucei brucei; 5×10^5/ml, 37° C., 24 hours) is reported as 50 µM, the minimal effective concentration (Trypanosma brucei brucei; [4]) is reported as 50 µM and the IC50 [1] is reported as 16 nM. It also gave a melting point of 103 to 105 °C.

`COc1c(Cl)c(C)c(C=O)c(O)c1C/C=C(\C)CC/C=C(\C)[C@@H]1CC(=O)C(C)(C)O1` [compound 211, 3-Chloro-6-hydroxy-4-methoxy-2-methyl-5-[(E,E)-3-methyl-7-(tetrahydro-5,5-dimethyl-4-oxo-2-furanyl)-2,6-octadienyl]benzaldehyde] gave an IC50 [1] of 4 nM.

Compound `C/C(=C\Cc1c(O)c(Cl)c(C)c(/C=N/O)c1O)CC/C=C(\C)[C@@H]1CC(=O)C(C)(C)O1` [compound 213, 5-[(E,E)-7-(3-Chloro-2,6-dihydroxy-5-hydroxyiminomethyl-4-methylphenyl)-1,5-dimethyl-1,5-heptadienyl]-4,5-dihydro-2,2-dimethyl-3(2H)-furanone] has an IC50 [1] of 28 nM and a melting point of 102 to 103 °C.

`CC(C)=CCCC(C)CC(O)c1c(O)c(Cl)c(C)c(C=O)c1O` (centres unmarked) [compound 220, 3-chloro-4,6-dihydroxy-5-(1-hydroxy-3,7-dimethyl-6-octenyl)-2-methylbenzaldehyde] showed an IC50 [1] of 20 nM.

With `CO/C(=C/C(N)=O)[C@H](C)[C@H](/C=C/c1csc(-c2csc([C@@H](C)/C=C/C=C/C(C)C)n2)n1)OC` [myxothiazol] the “absolute amounts of 50% inhibition” value [3] was 21,500 pmol/mg protein.

With `C/C=C(C)/C=C/C=C/[C@H](OC)[C@@H](C)[C@@H](OC)[C@@H](C)CCc1oc2c(O)c(OC)cc(OC)c2c(=O)c1C` [stigmatellin] the “absolute amounts of 50% inhibition” value [3] was 18,600 pmol/mg protein.
